Our source for the Kd values is patent US20260116920A1, “HUMAN TRANSFERRIN RECEPTOR BINDING PEPTIDE” (PEPTIDREAM INC., priority 2021, published 2026).

The target of the experiment is T1, human transferrin receptor (hTfR) (Homo sapiens, UniProt P02786).
T1 construct: made in house
The experiment is described as follows: Evaluation of molecular interaction between transferrin receptor (hTfR) and peptide using surface plasmon resonance (SPR). The format is binding. Particulars: surface plasmon resonance. In outline: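 KD values are derived by least-squares fitting of single-cycle kinetic sensorgrams. Peptide series (5–100 nM) flows over recombinant hTfR dimer immobilized on a Ni-NTA chip by EDC/NHS coupling, in pH 8.0 HEPES buffer containing 0.1% BSA and 1.0% DMSO.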
Background: Surface plasmon resonance follows binding to a sensor surface in real time, without labels.

The mark [1] stands for this setting: binding to hTfR, KD class symbol, read-out: SPR (KD value).
[2] abbreviates: peptide with linker, read-out: SPR (KD class for binding to hTfR).

Like-named read-outs stand apart in the source and are kept apart here. Positions of bridges follow the written chain, without caps; N, C: chain ends. Non-standard residues stand in square brackets, D forms with d. Residues, ends and D or L forms follow the SMILES beside them. *: point of attachment. Trp(1-CH2COOH) = N[C@@H](Cc1cn(CC(=O)O)c2ccccc12)C(=O)O; Nle(6-morpholino) = N[C@@H](CCCCN1CCOCC1)C(=O)O; Phe(3-COOH) = N[C@@H](Cc1cccc(C(=O)O)c1)C(=O)O; Trp(7-aza) = N[C@@H](Cc1c[nH]c2ncccc12)C(=O)O; NH(CH2CH2O)8Me = COCCOCCOCCOCCOCCOCCOCCOCCN*; NMePhe(3-Cl) = CN[C@@H](Cc1cccc(Cl)c1)C(=O)O; NMeY = CN[C@@H](Cc1ccc(O)cc1)C(=O)O; PEG4 = NCCOCCOCCOCCOCCC(=O)O; Carboxymethyl = O=C(O)C*

T1 sequence (P02786 89-760 limits assumed): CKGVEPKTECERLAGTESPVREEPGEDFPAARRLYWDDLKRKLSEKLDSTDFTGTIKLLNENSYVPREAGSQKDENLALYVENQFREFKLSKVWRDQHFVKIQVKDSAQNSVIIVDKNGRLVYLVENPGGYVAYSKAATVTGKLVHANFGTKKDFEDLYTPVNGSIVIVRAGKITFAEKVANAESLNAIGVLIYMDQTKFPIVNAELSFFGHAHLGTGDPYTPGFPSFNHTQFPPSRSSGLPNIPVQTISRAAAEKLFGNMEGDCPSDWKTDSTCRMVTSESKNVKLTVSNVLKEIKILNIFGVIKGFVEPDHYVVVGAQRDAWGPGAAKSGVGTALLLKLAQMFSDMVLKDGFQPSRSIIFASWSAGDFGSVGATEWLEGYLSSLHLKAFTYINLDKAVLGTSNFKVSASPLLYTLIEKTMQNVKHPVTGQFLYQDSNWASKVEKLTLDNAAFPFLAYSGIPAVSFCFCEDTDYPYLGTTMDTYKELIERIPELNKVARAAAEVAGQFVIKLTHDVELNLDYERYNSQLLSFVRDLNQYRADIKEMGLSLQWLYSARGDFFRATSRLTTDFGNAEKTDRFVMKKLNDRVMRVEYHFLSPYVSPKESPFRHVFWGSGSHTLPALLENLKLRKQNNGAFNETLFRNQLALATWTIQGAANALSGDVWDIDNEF

In the case of `CC[C@H](C)[C@@H]1NC(=O)[C@H](Cc2ccc(OCC(=O)O)cc2)NC(=O)[C@H](Cc2ccc(O)cc2)NC(=O)[C@H](CC(N)=O)NC(=O)[C@H](Cc2c[nH]c3ncccc23)NC(=O)[C@H](C(C)C)NC(=O)[C@H](Cc2cccc(Cl)c2)N(C)C(=O)[C@H](C(C)C)NC(=O)[C@H](C)NC(=O)CSC[C@@H](C(=O)NCCOCCOCCOCCOCCC(N)=O)NC(=O)[C@H](Cc2ccc(C(=O)NCCOCCOCCOCCOC)cc2)N(C)C(=O)[C@H](Cc2cccc(C(=O)NCCOCCOCCOCCOC)c2)NC(=O)[C@H](CCCNC(=N)N)NC(=O)[C@H](CCC(N)=O)NC(=O)[C@H]([C@@H](C)CC)NC1=O` [compound 131], the Kd (as a rule, the concentration at which binding is half-saturated) under setting [1] lay within 1 to 100 nM.
On the same count and under the same terms, then `CC[C@H](C)[C@@H]1NC(=O)[C@H](Cc2ccc(OCC(=O)O)cc2)NC(=O)[C@H](Cc2ccc(O)cc2)NC(=O)[C@H](CC(N)=O)NC(=O)[C@H](Cc2c[nH]c3ncccc23)NC(=O)[C@H](C(C)C)NC(=O)[C@H](Cc2cccc(Cl)c2)N(C)C(=O)[C@H](C(C)C)NC(=O)[C@H](C)NC(=O)CSC[C@@H](C(=O)NCCOCCOCCOCCOCCC(N)=O)NC(=O)[C@H](Cc2cccc(C(=O)NCCOCCOCCOCCOC)c2)N(C)C(=O)[C@H](Cc2cccc(C(=O)NCCOCCOCCOCCOC)c2)NC(=O)[C@H](CCCNC(=N)N)NC(=O)[C@H](CCC(N)=O)NC(=O)[C@H]([C@@H](C)CC)NC1=O` [compound 132], with 1 to 100 nM; and `CC[C@H](C)[C@@H]1NC(=O)[C@H](Cc2ccc(OCC(=O)O)cc2)NC(=O)[C@H](Cc2ccc(O)cc2)NC(=O)[C@H](CC(N)=O)NC(=O)[C@H](Cc2c[nH]c3ncccc23)NC(=O)[C@H](C(C)C)NC(=O)[C@H](Cc2cccc(Cl)c2)N(C)C(=O)[C@H](C(C)C)NC(=O)[C@H](C)NC(=O)CSC[C@@H](C(=O)NCCOCCOCCOCCOCCC(N)=O)NC(=O)[C@H](Cc2ccc(O)cc2)N(C)C(=O)[C@H](Cc2ccccc2)NC(=O)[C@H](CCCNC(=N)N)NC(=O)[C@H](CCC(=O)NCCOCCOCCOCCOC)NC(=O)[C@H]([C@@H](C)CC)NC1=O` [compound 133], with 1 to 100 nM.
On the same count and under the same terms, next, `CC[C@H](C)[C@@H]1NC(=O)[C@H](Cc2ccc(OCC(=O)O)cc2)NC(=O)[C@H](Cc2ccc(O)cc2)NC(=O)[C@H](CC(N)=O)NC(=O)[C@H](Cc2cn(CC(=O)O)c3ccccc23)NC(=O)[C@H](C(C)C)NC(=O)[C@H](Cc2cccc(Cl)c2)N(C)C(=O)[C@H](C(C)C)NC(=O)[C@H](C)NC(=O)CSC[C@@H](C(=O)NCCOCCOCCOCCOCCC(N)=O)NC(=O)[C@H](Cc2ccc(O)cc2)N(C)C(=O)[C@H](Cc2ccncc2)NC(=O)[C@H](CCCNC(=N)N)NC(=O)[C@H](CCC(N)=O)NC(=O)[C@H]([C@@H](C)CC)NC1=O` [compound 134]: 1 to 100 nM.
Still for that read-out and setting: next, `CC[C@H](C)[C@@H]1NC(=O)[C@H](Cc2ccc(OCC(=O)O)cc2)NC(=O)[C@H](Cc2ccc(O)cc2)NC(=O)[C@H](CC(N)=O)NC(=O)[C@H](Cc2cn(CC(=O)O)c3ccccc23)NC(=O)[C@H](C(C)C)NC(=O)[C@H](Cc2cccc(Cl)c2)N(C)C(=O)[C@H](C(C)C)NC(=O)[C@H](C)NC(=O)CSC[C@@H](C(=O)NCCOCCOCCOCCOCCC(N)=O)NC(=O)[C@H](Cc2ccc(O)cc2)N(C)C(=O)[C@H](Cc2ccncc2)NC(=O)[C@H](CCCCN2CCOCC2)NC(=O)[C@H](CCC(N)=O)NC(=O)[C@H]([C@@H](C)CC)NC1=O` [compound 135]: 1 to 100 nM.
Take `CC[C@H](C)[C@@H]1NC(=O)[C@H](Cc2ccc(OCC(=O)O)cc2)NC(=O)[C@H](Cc2ccc(O)cc2)NC(=O)[C@H](CC(N)=O)NC(=O)[C@H](Cc2cn(CC(=O)O)c3ccccc23)NC(=O)[C@H](C(C)C)NC(=O)[C@H](Cc2cccc(Cl)c2)N(C)C(=O)[C@H](C(C)C)NC(=O)[C@H](C)NC(=O)CSC[C@@H](C(=O)NCCOCCOCCOCCOCCC(N)=O)NC(=O)[C@H](Cc2ccc(O)cc2)N(C)C(=O)[C@H](Cc2cccc(C(=O)O)c2)NC(=O)[C@H](CCCNC(=N)N)NC(=O)[C@H](CCC(N)=O)NC(=O)[C@H]([C@@H](C)CC)NC1=O` [compound 136]: under setting [1], the Kd was in the range of 1 to 100 nM.
The same measure, in the same setting: next, `CC[C@H](C)[C@@H]1NC(=O)[C@H](Cc2ccc(OCC(=O)O)cc2)NC(=O)[C@H](Cc2ccc(O)cc2)NC(=O)[C@H](CC(N)=O)NC(=O)[C@H](Cc2c[nH]c3ncccc23)NC(=O)[C@H](C(C)C)NC(=O)[C@H](Cc2cccc(Cl)c2)N(C)C(=O)[C@H](C(C)C)NC(=O)[C@H](C)NC(=O)CSC[C@@H](C(=O)NCCOCCOCCOCCOCCC(N)=O)NC(=O)[C@H](Cc2ccc(O)cc2)N(C)C(=O)[C@H](Cc2ccncc2)NC(=O)[C@H](CCCNC(=N)N)NC(=O)[C@H](CCC(N)=O)NC(=O)[C@H]([C@@H](C)CC)NC1=O` [compound 137]: 1 to 100 nM; `CC[C@H](C)[C@@H]1NC(=O)[C@H](Cc2ccc(OCC(=O)O)cc2)NC(=O)[C@H](Cc2ccc(O)cc2)NC(=O)[C@H](CC(N)=O)NC(=O)[C@H](Cc2c[nH]c3ncccc23)NC(=O)[C@H](C(C)C)NC(=O)[C@H](Cc2cccc(Cl)c2)N(C)C(=O)[C@H](C(C)C)NC(=O)[C@H](C)NC(=O)CSC[C@@H](C(=O)NCCOCCOCCOCCOCCC(N)=O)NC(=O)[C@H](Cc2ccc(O)cc2)N(C)C(=O)[C@H](Cc2ccncc2)NC(=O)[C@H](CCCCN2CCOCC2)NC(=O)[C@H](CCC(N)=O)NC(=O)[C@H]([C@@H](C)CC)NC1=O` [compound 138]: 1 to 100 nM; `CC[C@H](C)[C@@H]1NC(=O)[C@H](Cc2ccc(OCC(=O)O)cc2)NC(=O)[C@H](Cc2ccc(O)cc2)NC(=O)[C@H](CC(N)=O)NC(=O)[C@H](Cc2c[nH]c3ncccc23)NC(=O)[C@H](C(C)C)NC(=O)[C@H](Cc2cccc(Cl)c2)N(C)C(=O)[C@H](C(C)C)NC(=O)[C@H](C)NC(=O)CSC[C@@H](C(=O)NCCOCCOCCOCCOCCC(N)=O)NC(=O)[C@H](Cc2ccc(O)cc2)N(C)C(=O)[C@H](Cc2ccncc2)NC(=O)[C@H](CCCCN2CCOCC2)NC(=O)[C@H](CCC(=O)NCCOCCOCCOCCOCCOCCOCCOCCOC)NC(=O)[C@H]([C@@H](C)CC)NC1=O` [compound 139]: 1 to 100 nM.
The same measure, in the same setting: then `CC[C@H](C)[C@@H]1NC(=O)[C@H](Cc2ccc(OCC(=O)O)cc2)NC(=O)[C@H](Cc2ccc(O)cc2)NC(=O)[C@H](CC(N)=O)NC(=O)[C@H](Cc2c[nH]c3ncccc23)NC(=O)[C@H](C(C)C)NC(=O)[C@H](Cc2cccc(Cl)c2)N(C)C(=O)[C@H](C(C)C)NC(=O)[C@H](C)NC(=O)CSC[C@@H](C(=O)NCCOCCOCCOCCOCCC(N)=O)NC(=O)[C@H](Cc2ccc(O)cc2)N(C)C(=O)[C@H](Cc2cccc(C(=O)O)c2)NC(=O)[C@H](CCCCN2CCOCC2)NC(=O)[C@H](CCC(N)=O)NC(=O)[C@H]([C@@H](C)CC)NC1=O` [compound 140] ({CH2CO}-AV[NMePhe(3-Cl)]V[Trp(7-aza)]NYY(Carboxymethyl)IIQ[Nle(6-morpholino)][Phe(3-COOH)][NMeY]C[PEG4]-NH2; thioether N-15), with 1 to 100 nM.
Regarding `CC[C@H](C)[C@@H]1NC(=O)[C@H](Cc2ccc(OCC(=O)O)cc2)NC(=O)[C@H](Cc2ccc(N)nc2)NC(=O)[C@H](CC(N)=O)NC(=O)[C@H](Cc2c[nH]c3ccccc23)NC(=O)[C@H](C(C)C)NC(=O)[C@H](Cc2cccc(Cl)c2)N(C)C(=O)[C@H](C(C)C)NC(=O)[C@H](C)NC(=O)CSC[C@@H](C(=O)NCCOCCOCCOCCOCCC(N)=O)NC(=O)[C@H](Cc2ccc(O)cc2)N(C)C(=O)[C@H](Cc2ccncc2)NC(=O)[C@H](CCCNC(=N)N)NC(=O)[C@H](CCC(=O)NCCOCCOCCOCCOCCOCCOCCOCCOC)NC(=O)[C@H]([C@@H](C)CC)NC1=O` [compound 141], the Kd under setting [1] fell in the range of 100 to 1000 nM.
`CC[C@H](C)[C@@H]1NC(=O)[C@H](Cc2ccc(OCC(=O)O)cc2)NC(=O)[C@H](Cc2ccc(O)cc2)NC(=O)[C@H](CC(N)=O)NC(=O)[C@H](Cc2cn(CC(=O)O)c3ccccc23)NC(=O)[C@H](C(C)C)NC(=O)[C@H](Cc2cccc(Cl)c2)N(C)C(=O)[C@H](C(C)C)NC(=O)[C@H](C)NC(=O)CSC[C@@H](C(=O)NCCOCCOCCOCCOCCC(N)=O)NC(=O)[C@H](Cc2ccc(O)cc2)N(C)C(=O)[C@H](Cc2cccc(C(=O)O)c2)NC(=O)[C@H](CCCCN2CCOCC2)NC(=O)[C@H](CCC(N)=O)NC(=O)[C@H]([C@@H](C)CC)NC1=O` [compound 216] ({CH2CO}-AV[NMePhe(3-Cl)]V[Trp(1-CH2COOH)]NYY(Carboxymethyl)IIQ[Nle(6-morpholino)][Phe(3-COOH)][NMeY]C[PEG4]-NH2; thioether N-15): the Kd under setting [2] fell in the range of 1 to 100 nM.
The same measure, in the same setting: next, `CC[C@H](C)[C@@H]1NC(=O)[C@H](Cc2ccc(OCC(=O)O)cc2)NC(=O)[C@H](Cc2ccc(O)cc2)NC(=O)[C@H](CC(N)=O)NC(=O)[C@H](Cc2cn(CC(=O)O)c3ccccc23)NC(=O)[C@H](C(C)C)NC(=O)[C@H](Cc2cccc(Cl)c2)N(C)C(=O)[C@H](C(C)C)NC(=O)[C@H](C)NC(=O)CSC[C@@H](C(=O)NCCOCCOCCOCCOCCC(N)=O)NC(=O)[C@H](Cc2ccc(O)cc2)N(C)C(=O)[C@H](Cc2cccc(C(=O)O)c2)NC(=O)[C@H](CCCCN2CCOCC2)NC(=O)[C@H](CCC(=O)NCCOCCOCCOCCOCCOCCOCCOCCOC)NC(=O)[C@H]([C@@H](C)CC)NC1=O` [compound 217] ({CH2CO}-AV[NMePhe(3-Cl)]V[Trp(1-CH2COOH)]NYY(Carboxymethyl)IIE(NH(CH2CH2O)8Me)[Nle(6-morpholino)][Phe(3-COOH)][NMeY]C[PEG4]-NH2; thioether N-15): 1 to 100 nM; `CC[C@H](C)[C@@H]1NC(=O)[C@H](Cc2ccc(OCC(=O)O)cc2)NC(=O)[C@H](Cc2ccc(O)cc2)NC(=O)[C@H](CC(N)=O)NC(=O)[C@H](Cc2c[nH]c3ncccc23)NC(=O)[C@H](C(C)C)NC(=O)[C@H](Cc2cccc(Cl)c2)N(C)C(=O)[C@H](C(C)C)NC(=O)[C@H](C)NC(=O)CSC[C@@H](C(=O)NCCOCCOCCOCCOCCC(N)=O)NC(=O)[C@H](Cc2ccc(O)cc2)N(C)C(=O)[C@H](Cc2ccncc2)NC(=O)[C@H](CCCNC(=N)N)NC(=O)[C@H](CCC(=O)NCCOCCOCCOCCOCCOCCOCCOCCOC)NC(=O)[C@H]([C@@H](C)CC)NC1=O` [compound 218]: 1 to 100 nM.
